The term EC50 denotes the concentration needed to bring the measured effect to its halfway point. Broadly, the IC50 is the concentration at which inhibition is half-maximal.

Consider eleven molecules from BindingDB's records for doi:10.1021/acs.jmedchem.2c02005 (The Hong Kong Polytechnic University, 2023).

The nature of series [1]: Negative allosteric modulator activity at P-gp in human LCC6MDR cells overexpressing P-gp assessed as reversal of P-gp mediated paclitaxel resistance activity incubated for 5 days by MTS assay. (Tetrazolium dyes change colour on reduction, which living cells bring about.)
Series [2] in a line: Negative allosteric modulator activity at P-gp in human LCC6MDR cells overexpressing P-gp assessed as reversal of P-gp mediated PTX resistance by measuring paclitaxel IC50 incubated for 5 days by MTS assay.
Series [3] can be described thus: Negative allosteric modulator activity at human P-gp G1114L mutant expressed in HEK293FT cells assessed as reversal of P-gp mediated PTX resistance by measuring paclitaxel IC50 incubated for 5 days by MTS assay (Rvb = 4.5 +/- 1.1 nM).
A short description of series [4]: Negative allosteric modulator activity at human P-gp H1195A mutant expressed in HEK293FT cells assessed as reversal of P-gp mediated PTX resistance by measuring paclitaxel IC50 incubated for 5 days by MTS assay (Rvb = 3.4 +/- 1.5 nM).
Series [5] in a line: Negative allosteric modulator activity at human P-gp C1227A mutant expressed in HEK293FT cells assessed as reversal of P-gp mediated PTX resistance by measuring paclitaxel IC50 incubated for 5 days by MTS assay (Rvb = 352.1 +/- 30.6 nM).
Series [6] in a line: Negative allosteric modulator activity at human P-gp I1115F mutant expressed in HEK293FT cells assessed as reversal of P-gp mediated PTX resistance by measuring paclitaxel IC50 incubated for 5 days by MTS assay (Rvb = 663.1 +/- 10.2 nM).
Series [7] in a line: Negative allosteric modulator activity at human P-gp I1115Y mutant expressed in HEK293FT cells assessed as reversal of P-gp mediated PTX resistance by measuring paclitaxel IC50 incubated for 5 days by MTS assay (Rvb = 6.9 +/- 1.2 nM).
Series [8] in a line: Negative allosteric modulator activity at human P-gp T1226Y mutant expressed in HEK293FT cells assessed as reversal of P-gp mediated PTX resistance by measuring paclitaxel IC50 incubated for 5 days by MTS assay (Rvb = 449.3 +/- 31.2 nM).
Series [9] in a line: Negative allosteric modulator activity at human P-gp G1114A mutant expressed in HEK293FT cells assessed as reversal of P-gp mediated PTX resistance by measuring paclitaxel IC50 incubated for 5 days by MTS assay (Rvb = 5.6 +/- 1.1 nM).
A short description of series [10]: Negative allosteric modulator activity at human P-gp Q1193N mutant expressed in HEK293FT cells assessed as reversal of P-gp mediated PTX resistance by measuring paclitaxel IC50 incubated for 5 days by MTS assay (Rvb = 560.2 +/- 43.9 nM).
Series [11] in a line: Negative allosteric modulator activity at human P-gp Q1193E mutant expressed in HEK293FT cells assessed as reversal of P-gp mediated PTX resistance by measuring paclitaxel IC50 incubated for 5 days by MTS assay (Rvb = 395.8 +/- 13.4 nM).
A short description of series [12]: Negative allosteric modulator activity at human P-gp I1115K mutant expressed in HEK293FT cells assessed as reversal of P-gp mediated PTX resistance by measuring paclitaxel IC50 incubated for 5 days by MTS assay (Rvb = 6.2 +/- 2 nM).
A short description of series [13]: Negative allosteric modulator activity at human P-gp Q1193T mutant expressed in HEK293FT cells assessed as reversal of P-gp mediated PTX resistance by measuring paclitaxel IC50 incubated for 5 days by MTS assay (Rvb = 523.6 +/- 33.7 nM).
Series [14] in a line: Negative allosteric modulator activity at human P-gp G1114I mutant expressed in HEK293FT cells assessed as reversal of P-gp mediated PTX resistance by measuring paclitaxel IC50 incubated for 5 days by MTS assay (Rvb = 10.2 +/- 2.4 nM).
The nature of series [15]: Negative allosteric modulator activity at human P-gp Q1193K mutant expressed in HEK293FT cells assessed as reversal of P-gp mediated PTX resistance by measuring paclitaxel IC50 incubated for 5 days by MTS assay (Rvb = 466.2 +/- 72.3 nM).
Series [16] can be described thus: Negative allosteric modulator activity at human P-gp I1115L mutant expressed in HEK293FT cells assessed as reversal of P-gp mediated PTX resistance by measuring paclitaxel IC50 incubated for 5 days by MTS assay (Rvb = 472 +/- 15.4 nM).
Series [17] can be described thus: Negative allosteric modulator activity at human P-gp T1226A mutant expressed in HEK293FT cells assessed as reversal of P-gp mediated PTX resistance by measuring paclitaxel IC50 incubated for 5 days by MTS assay (Rvb = 6.3 +/- 2.1 nM).
Series [18] is described as follows: Negative allosteric modulator activity at human P-gp Q1193F mutant expressed in HEK293FT cells assessed as reversal of P-gp mediated PTX resistance by measuring paclitaxel IC50 incubated for 5 days by MTS assay (Rvb = 453.6 +/- 14.8 nM).
Series [19] in a line: Negative allosteric modulator activity at human P-gp Q1193C mutant expressed in HEK293FT cells assessed as reversal of P-gp mediated PTX resistance by measuring paclitaxel IC50 incubated for 5 days by MTS assay (Rvb = 359.4 +/- 22.3 nM).
A short description of series [20]: Negative allosteric modulator activity at human P-gp I1115E mutant expressed in HEK293FT cells assessed as reversal of P-gp mediated PTX resistance by measuring paclitaxel IC50 incubated for 5 days by MTS assay (Rvb = 7.4 +/- 0.8 nM).
A short description of series [21]: Negative allosteric modulator activity at human P-gp I1115W mutant expressed in HEK293FT cells assessed as reversal of P-gp mediated PTX resistance by measuring paclitaxel IC50 incubated for 5 days by MTS assay (Rvb = 7.8 +/- 0.9 nM).
A short description of series [22]: Negative allosteric modulator activity at human wildtype P-gp expressed in HEK293FT cells assessed as reversal of P-gp mediated PTX resistance by measuring paclitaxel IC50 incubated for 5 days by MTS assay (Rvb = 540.5 +/- 20.3 nM).
A short description of series [23]: Negative allosteric modulator activity at human P-gp T1226W mutant expressed in HEK293FT cells assessed as reversal of P-gp mediated PTX resistance by measuring paclitaxel IC50 incubated for 5 days by MTS assay (Rvb = 363.5 +/- 24.9 nM).
Series [24] can be described thus: Negative allosteric modulator activity at human P-gp L1113A mutant expressed in HEK293FT cells assessed as reversal of P-gp mediated PTX resistance by measuring paclitaxel IC50 incubated for 5 days by MTS assay (Rvb = 590 +/- 14.2 nM).
Series [25] is described as follows: Negative allosteric modulator activity at human P-gp Q1193A mutant expressed in HEK293FT cells assessed as reversal of P-gp mediated PTX resistance by measuring paclitaxel IC50 incubated for 5 days by MTS assay (Rvb = 483.4 +/- 17.2 nM).
A short description of series [26]: Negative allosteric modulator activity at human P-gp I1115N mutant expressed in HEK293FT cells assessed as reversal of P-gp mediated PTX resistance by measuring paclitaxel IC50 incubated for 5 days by MTS assay (Rvb = 10.2 +/- 1.6 nM).
The nature of series [27]: Negative allosteric modulator activity at human P-gp I1115A mutant expressed in HEK293FT cells assessed as reversal of P-gp mediated PTX resistance by measuring paclitaxel IC50 incubated for 5 days by MTS assay (Rvb = 7.5 +/- 2.4 nM).
Series [28] is described as follows: Negative allosteric modulator activity at human P-gp G1114V mutant expressed in HEK293FT cells assessed as reversal of P-gp mediated PTX resistance by measuring paclitaxel IC50 incubated for 5 days by MTS assay (Rvb = 3.4 +/- 0.5 nM).
A short description of series [29]: Negative allosteric modulator activity at human P-gp I1115M mutant expressed in HEK293FT cells assessed as reversal of P-gp mediated PTX resistance by measuring paclitaxel IC50 incubated for 5 days by MTS assay (Rvb = 9.8 +/- 0.9 nM).
Series [30] in a line: Negative allosteric modulator activity at human P-gp T1226F mutant expressed in HEK293FT cells assessed as reversal of P-gp mediated PTX resistance by measuring paclitaxel IC50 incubated for 5 days by MTS assay (Rvb = 409.9 +/- 19.7 nM).

In the case of `C#CCN(CCOCCOc1ccc(-c2cc(=O)c3ccccc3o2)cc1)Cc1ccc(C2(C(F)(F)F)N=N2)cc1`, the EC50 in [1] came to 602 nM. For the same molecule, the IC50 in series [2] was determined as 57 nM.
With `C#CCNc1cc(C)cc2c(=O)cc(-c3ccc(OCCOCCNCc4ccc(C5(C(F)(F)F)N=N5)cc4)cc3)oc12`, in series [1], the EC50 was found to be 733 nM. The concentration for half-maximal inhibition (IC50) in series [2] stood at 280 nM.
With `O=c1cc(-c2ccc(OCCOCCOCCOCCOc3ccc(-c4cc(=O)c5c(O)cc(O)cc5o4)cc3)cc2)oc2cc(O)cc(O)c12`, in [1], the EC50 came to 900 nM.
Take `O=c1cc(-c2ccc(OCCOCCNCc3ccccc3)cc2)oc2ccccc12`: the IC50 in series [3] amounted to 4.8 nM; in series [4], 4.7 nM; in [5] it was 5.2 nM; in series [6], 43 nM; in series [7] it was 8.2 nM; in [8] it was 7.2 nM. Besides, the IC50 in series [9] was 4.3 nM; in series [10], 11 nM; in series [11], 93 nM; in series [12] it was 7.8 nM; in [13], 61 nM; in series [14], 8.6 nM. The IC50 came out at 48 nM in [15]; 10 nM in [16]; 4.6 nM in series [17]; 81 nM in series [18]; 29 nM in series [19]; 7.6 nM in series [20]. In addition, the 50% inhibitory concentration (IC50) in series [21] came out at 8.3 nM; in series [22], 7.4 nM; in series [23], 6.4 nM; in [24] it was 4.2 nM; in series [25] it was 112 nM; in [26] it was 9.9 nM. In addition, the 50% inhibitory concentration (IC50) in series [27] came to 6.3 nM; in series [28] it was 3.5 nM; in series [2], 3.8 nM; in [29] it was 7.9 nM; in series [30], 6.9 nM.
As for `C#CCOc1cccc2oc(-c3ccc(OCCOCCNCc4ccc(C5(C(F)(F)F)N=N5)cc4)cc3)cc(=O)c12`, the EC50 in [1] came to 66 nM. In addition, the 50% inhibitory concentration (IC50) in series [2] was found to be 1.4 nM.
The matching figures for `O=c1cc(-c2ccc(OCCOCCNCc3ccc(C4(C(F)(F)F)N=N4)cc3)cc2)oc2ccccc12`: 107 nM and 2.3 nM.
In the case of `O=c1cc(-c2ccc(O)cc2)oc2cc(O)cc(O)c12` [Naringenin, 18], the half-maximal effective concentration (EC50) in series [1] is greater than 10000 nM.
As to `O=c1cc(-c2ccc(OCCOCCN(Cc3ccc(C4(C(F)(F)F)N=N4)cc3)Cc3ccc(C4(C(F)(F)F)N=N4)cc3)cc2)oc2ccccc12`, in series [1], the EC50 stood at 3010 nM. Further, the IC50 in series [2] amounted to 158 nM.
In the case of `[N-]=[N+]=NCc1cc(CNCCOCCOc2ccc(-c3cc(=O)c4ccccc4o3)cc2)cc(N=[N+]=[N-])c1`, the EC50 in series [1] is 110 nM. Further, the IC50 in series [2] turned out to be 2.1 nM.
Consider `C#CCNc1cc(C)cc2c(=O)cc(-c3ccc(OCCOCCN(Cc4ccc(C5(C(F)(F)F)N=N5)cc4)Cc4ccc(C5(C(F)(F)F)N=N5)cc4)cc3)oc12`, for which, in series [2], the IC50 came to 312 nM.
With `O=c1cc(-c2ccc(OCCOCCOCCOCCOc3ccc(-c4cc(=O)c5ccccc5o4)cc3)cc2)oc2ccccc12`, in series [1], the 50% effective concentration (EC50) stood at 360 nM.
